Some test systems named below: UO-31; Hs-578T; SK-MEL-5; DU-145; PC-3; HOP-62; 786-0; OVCAR-8; SF-268; SNB-19; SK-OV-3; EKVX; A549; OVCAR-3; M14; SF-539; HT-29; UACC-62; MDA-N; SNB-75.
Holding throughout (assay): NCI-60 cell line screen, 48 h

Where “and” joins values, the source holds several entries; their conditions need not be identical. Equal values may be shown once.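 Five concentrations, 48 hours, 96-well plates. GI50 marks 50% less growth.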 Calls of active or inactive are those of the source. Rule as the data show it: active = GI50 up to about 1.1 µM and inactive = higher.

Regarding `CO[C@@H]1C[C@H](OC(N)=O)[C@@H]2C=C[C@@H]3/C=C(C)/C=C/[C@@H](C)[C@H]([C@H](C)[C@H](O)[C@@H](C)NC(C)=O)OC(=O)/C=C/C=C(C)\C=C\[C@]3(C)[C@@H]2C1`, the GI50 with UO-31, in the test with Hs-578T, with SK-MEL-5, with DU-145, with PC-3 and in the test on HOP-62 was < 0.01 µM (active) in each case. In addition, the GI50 in the test on 786-0 was < 0.01 µM (active); in the test on OVCAR-8 it was 0.22 µM (active); in the test on SF-268, 0.767 µM (active); in the test on SNB-19 it was 1.5 µM (inactive); with SK-OV-3, < 0.0504 µM (active); in the test with EKVX, 1.24 µM (inactive). The GI50 in the test on A549 was < 0.01 µM (active); in the test on OVCAR-3 it was < 0.0436 µM (active); in the test on M14 it was < 0.01 µM (active); in the test on SF-539, < 0.01 µM (active); with HT-29, < 0.01 µM (active); in the test on UACC-62, < 0.01 µM (active). The GI50 in the test on MDA-N and with SNB-75 was < 0.01 µM (active) in each case.
For `COC1OC(C(=O)CP(=O)(OC)OC)C(OCc2ccccc2)C(OCc2ccccc2)C1OCc1ccccc1` (stereo not given), the GI50 with UO-31 was 11.2 µM (inactive) and 17.1 µM (inactive); in the test with Hs-578T, 25.6 µM (inactive) and 22.1 µM (inactive); with SK-MEL-5 it was 14.8 µM (inactive) and 15 µM (inactive); in the test on DU-145, 17.9 µM (inactive) and 16.5 µM (inactive); in the test with PC-3, 15.4 µM (inactive) and 14.2 µM (inactive); with HOP-62, 17.2 µM (inactive) and 18 µM (inactive). The GI50 is 17.6 µM (inactive) and 17.3 µM (inactive) in the test on 786-0; 19.8 µM (inactive) and 17.9 µM (inactive) in the test with OVCAR-8; 16.9 µM (inactive) and 17.7 µM (inactive) in the test with SF-268; 15.9 µM (inactive) and 16.3 µM (inactive) with SNB-19; 18.1 µM (inactive) and 17.9 µM (inactive) in the test on SK-OV-3; 15 µM (inactive) and 16.9 µM (inactive) with EKVX. The GI50 with A549 is 15.3 µM (inactive) and 15.5 µM (inactive); in the test on OVCAR-3, 15.6 µM (inactive) and 15.1 µM (inactive); with M14, 15.3 µM (inactive) and 16.6 µM (inactive); in the test with SF-539 it was 17.3 µM (inactive) and 16.9 µM (inactive); with HT-29 it was 17.2 µM (inactive) and 16 µM (inactive); with UACC-62, 13.7 µM (inactive) and 14.8 µM (inactive). Besides, the GI50 was 16.3 µM (inactive) and 17.1 µM (inactive) in the test with MDA-N; 14.6 µM (inactive) and 16 µM (inactive) with SNB-75.
In the case of `COC(=O)[C@]1(C)CC[C@]2(C)CC[C@]3(C)C4[C@H]5Oc6c(cc7c(c6C)CCC6[C@@]7(C)CC[C@@]7(C)C8[C@](C)(CCC[C@@]8(C)C(=O)OC)CC[C@]67C)O[C@H]5c5c(cc6c(c5C)O[C@@]5(C)C7=CC=C8[C@@](C)(CC[C@@]9(C)[C@@H]%10C[C@](C)(C(=O)OC)CC[C@]%10(C)CC[C@]89C)C7=CC(=O)[C@@]5(O)O6)[C@]4(C)CC[C@@]3(C)C2C1` (stereo not given in full), the GI50 in the test with UO-31 was 2.52 µM (inactive); in the test on Hs-578T, 5.78 µM (inactive); with SK-MEL-5, 3.69 µM (inactive); with DU-145 it was 3.6 µM (inactive); in the test with PC-3, 4.15 µM (inactive); with HOP-62 it was 8.51 µM (inactive). Further, the GI50 in the test with 786-0 is 1.86 µM (inactive); in the test with OVCAR-8 it was 2.63 µM (inactive); in the test on SF-268, 4.5 µM (inactive); in the test with SNB-19, 5.05 µM (inactive); in the test with SK-OV-3 it was > 12.5 µM (inactive); with EKVX it was 3.42 µM (inactive). For the same compound, the GI50 with A549 was > 12.5 µM (inactive); in the test with OVCAR-3 it was 2.64 µM (inactive); in the test on M14, 4.01 µM (inactive); in the test on SF-539, 2.63 µM (inactive); in the test with HT-29, 3.66 µM (inactive); in the test on UACC-62, 2.32 µM (inactive). The GI50 in the test on MDA-N was 1.93 µM (inactive); in the test on SNB-75, 2.79 µM (inactive).
For the compound `O=C1O/C(=C\c2ccc(O)c(Br)c2)C(c2ccc(O)cc2)=C1Cl`, the GI50 with UO-31 is 48.2 µM (inactive); with Hs-578T, 37.1 µM (inactive); in the test with SK-MEL-5, 22.4 µM (inactive); in the test with DU-145, 61.1 µM (inactive); in the test with PC-3, 51.1 µM (inactive); in the test on HOP-62, 46.7 µM (inactive). Also, the GI50 was 42 µM (inactive) in the test with 786-0; 42.5 µM (inactive) in the test with OVCAR-8; 27.7 µM (inactive) in the test with SF-268; 89.3 µM (inactive) in the test on SNB-19; > 100 µM (inactive) in the test with SK-OV-3; 32.6 µM (inactive) in the test with EKVX. The GI50 with A549 was 36.1 µM (inactive); in the test with OVCAR-3 it was 27.2 µM (inactive); in the test on M14, 36.1 µM (inactive); in the test on SF-539, 40.6 µM (inactive); in the test on HT-29, 51.9 µM (inactive); with UACC-62, 16.4 µM (inactive). The GI50 with MDA-N is 26.1 µM (inactive); in the test on SNB-75 it was 53.3 µM (inactive).
Take `CCCCCCCCCCCCCCCCCCN(C)C(COC)COP(=O)([O-])OCC[N+](C)(C)C` (stereo not given): the GI50 is 16 µM (inactive) with UO-31; 3.19 µM (inactive) with Hs-578T; 12.9 µM (inactive) in the test on SK-MEL-5; 10.1 µM (inactive) with DU-145; 1.53 µM (inactive) with PC-3; 3.09 µM (inactive) in the test with HOP-62. Also, the GI50 in the test on 786-0 is 1.74 µM (inactive); with OVCAR-8, 11.8 µM (inactive); with SF-268, 3.24 µM (inactive); with SNB-19 it was 3.61 µM (inactive); with SK-OV-3, 11.2 µM (inactive); with EKVX it was 17.5 µM (inactive). Moreover, the GI50 is 6.68 µM (inactive) in the test on A549; 7.24 µM (inactive) in the test on OVCAR-3; 3.46 µM (inactive) in the test with M14; 7.01 µM (inactive) in the test on SF-539; 2.94 µM (inactive) in the test with HT-29; 5.16 µM (inactive) in the test on UACC-62. Besides, the GI50 was 15.6 µM (inactive) in the test with MDA-N and 2.97 µM (inactive) in the test with SNB-75.
Take `Nc1c(C(=O)O)nnc2cc(Cl)c(Cl)cc12`: the GI50 is 56.9 µM (inactive) in the test on UO-31; > 100 µM (inactive) in the test with Hs-578T; > 100 µM (inactive) in the test on SK-MEL-5; > 100 µM (inactive) in the test on DU-145; > 100 µM (inactive) with PC-3; > 100 µM (inactive) in the test on HOP-62. Moreover, the GI50 in the test on 786-0, in the test with OVCAR-8, in the test with SF-268, in the test on SNB-19, in the test on SK-OV-3 and with EKVX was > 100 µM (inactive) throughout. The GI50 in the test on A549, in the test on OVCAR-3, in the test on M14, with SF-539, in the test on HT-29 and with UACC-62 was > 100 µM (inactive) in each case. The GI50 in the test on MDA-N and with SNB-75 was > 100 µM (inactive) each time.

These data come from ChEMBL document CHEMBL1201862, “PubChem BioAssay data set” (2004).
